Test results: patent US10744114B2, “Use of eupatilin as pharmaceutical composition for prevention and treatment of fibrosis using EMT inhibitory activity” (OSTEONEUROGEN INC., priority 2016, dated 2020)

Test system: ONGHEPA1 cells
Assay: TGF-β-induced fibrosis of ONGHEPA1 cells (microscope)
Assay type: cell-based, mouse
Conditions: 24 hr; for inhibition of the progress of fibrosis (differentiation into myofibroblasts): TGF-β 5 ng/mL plus 50 μM compound; for toxicity to ONGHEPA1 cells: TGF-β plus 50 μM compound
From the text: The liver tissue was separated from C57BL/6 mice and a single-cell suspension thereof was made, and immortalized cells were obtained through continuous culture and were confirmed to be mesenchymal stem cells (MSC) of HSC via RT-PCR (Reverse Transcription Polymerase Chain Reaction) using MC (Immunohistochemistry) and FACS (Fluorescence-Activated Cell Sorting). This cell line was called “ONGHEPA1”, and was deposited with the Korean Collection for Type Cultures (KCTC) of the Korea Research Institute of Bioscience and Biotechnology and assigned accession number KCTC13086BP.
Using such properties of HSC, the fibrotic characteristics of ONGHEPA1 were measured. To induce fibrosis, TGF-β (transforming growth factor beta) was added, and the morphologies of the cells were observed after 6 hr, 12 hr, 24 hr, and 48 hr. Consequently, fibrosis was confirmed to progress considerably after 24 hr and further progress after 48 hr (A of FIG. 6).
While ONGHEPA1 cells were incubated, they were treated with TGF-β to induce fibrosis, and 50 μM of eupatilin was added to the culture medium.
In order to more clearly evaluate the effect of eupatilin as above, changes were measured when ONGHEPA1 cells were first treated with eupatilin, washed to remove eupatilin and then treated with TGF-β to induce fibrosis. […] This means that eupatilin is directly associated with the course of fibrosis to thus inhibit the progress of fibrosis.
On the contrary, changes were measured when ONGHEPA1 cells were first treated with TGF-β to induce fibrosis, washed to remove TGF-β and then treated with eupatilin. […] Even when fibrosis was already progressed, eupatilin was able to restore the cells to their original normal condition.
In order to more clearly evaluate whether eupatilin was able to restore the cells that already undergone fibrosis to normal cells, changes were measured when ONGHEPA1 cells were treated with TGF-β for 24 hr to induce complete fibrosis and then treated with eupatilin. […] This means that fibrosis that has progressed considerably can be effectively treated using eupatilin.
The effects of various chromone derivatives other than eupatilin on fibrosis were measured in the same manner as in Example 3-3. While ONGHEPA1 cells were incubated, fibrosis was induced by TGF-β, and a chromone derivative was added at a concentration of 50 μM to the culture medium.

## COc1c(-c2ccccc2)oc2c(OC)c(O)cc(O)c2c1=O [ONGA100]
  inhibition of the progress of fibrosis (differentiation into myofibroblasts): no effects or very low effects
Listed as Chemical Formula 8
  inhibition of the progress of fibrosis (differentiation into myofibroblasts): no effects on the inhibition of fibrosis

## COc1c(-c2ccc(O)cc2)oc2cc(O)cc(O)c2c1=O [ONGB200]
  inhibition of the progress of fibrosis (differentiation into myofibroblasts): no effects or very low effects
Listed as Chemical Formula 10
  inhibition of the progress of fibrosis (differentiation into myofibroblasts): no effects on the inhibition of fibrosis

## COc1cc2oc(-c3ccc(O)cc3)cc(=O)c2c(O)c1OC [ONGC200, 5-hydroxy-2-(4-hydroxyphenyl)-6,7-dimethoxy-chromone]
  inhibition of the progress of fibrosis (differentiation into myofibroblasts): effective at inhibiting the progress of fibrosis

## COc1ccc(-c2cc(=O)c3c(O)c(O)c(O)cc3o2)cc1 [ONGD200]
  toxicity to ONGHEPA1 cells: toxicity such as necrosis

## COc1ccc(-c2oc3cc(O)c(OC)c(O)c3c(=O)c2OC)cc1O [ONGD400]
  toxicity to ONGHEPA1 cells: toxicity such as necrosis

## COc1c(O)cc2oc(-c3ccc(O)cc3)cc(=O)c2c1O [ONGE200, 5,7-dihydroxy-2-(4-hydroxyphenyl)-6-methoxy-chromone]
  inhibition of the progress of fibrosis (differentiation into myofibroblasts): effective at inhibiting the progress of fibrosis
Listed as Chemical Formula 5
  inhibition of the progress of fibrosis (differentiation into myofibroblasts): superior fibrosis-inhibiting effects

## O=c1cc(-c2ccc(O)c(O)c2O)oc2cc(O)cc(O)c12 [ONGE300]
  inhibition of the progress of fibrosis (differentiation into myofibroblasts): no effects or very low effects
Listed as Chemical Formula 11
  inhibition of the progress of fibrosis (differentiation into myofibroblasts): no effects on the inhibition of fibrosis

## COc1cc2oc(-c3ccc(O)c(O)c3)cc(=O)c2c(O)c1OC [ONGH200, 2-(3,4-dihydroxyphenyl)-5-hydroxy-6,7-dimethoxy-chromone]
  inhibition of the progress of fibrosis (differentiation into myofibroblasts): effective at inhibiting the progress of fibrosis
Listed as Chemical Formula 7
  inhibition of the progress of fibrosis (differentiation into myofibroblasts): superior fibrosis-inhibiting effects

## COc1cc(-c2oc3cc(O)c(OC)c(O)c3c(=O)c2OC)ccc1O [ONGH300]
  toxicity to ONGHEPA1 cells: toxicity such as necrosis

## COc1c(O)cc2oc(-c3ccc(O)c(O)c3)cc(=O)c2c1O [ONGI300, 2-(3,4-dihydroxyphenyl)-5,7-dihydroxy-6-methoxy-chromone]
  inhibition of the progress of fibrosis (differentiation into myofibroblasts): effective at inhibiting the progress of fibrosis
Listed as Chemical Formula 3
  inhibition of the progress of fibrosis (differentiation into myofibroblasts): superior fibrosis-inhibiting effects

## COc1c(O)cc(O)c2c(=O)cc(-c3ccccc3)oc12 [wogonin, reference compound]
  inhibition of the progress of fibrosis (differentiation into myofibroblasts): no effects or very low effects
Listed as Chemical Formula 9
  inhibition of the progress of fibrosis (differentiation into myofibroblasts): no effects on the inhibition of fibrosis
